The test system of the test is B cell receptor-mediated activation of B cells in human blood (CD69 expression). The test is described as follows: Inhibition of B cell activation in whole blood measured by CD69 expression. The test is classed as cell-based. Conditions: anti-IgM stimulation, 20 h, 50% decrease of CD69-positive cells that are also CD20-positive. The procedure, abridged: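 Healthy-donor human whole blood (heparin) preincubated with compound (nine-point, three-fold dilutions) for 30 min at 37 °C, then stimulated with goat F(ab′)2 anti-human IgM (50 μg/ml final) for 20 h. CD69-positive B cells (CD20 gating) measured by flow cytometry as percent positive; IC50 from dose-response fit.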

SMILES strings stand for the structures.

By IC50 is commonly meant the concentration that inhibits the measured activity by half. Low values mean inhibition by little substance, high ones a need for much substance. In the case of `Cn1cc(-c2cccc(-n3ccc4cc(C5(C)CC5)cc(F)c4c3=O)c2CO)cc(Nc2ccc(C(=O)N3CCOCC3)cn2)c1=O` [Example I-60, 8-Fluoro-2-(2-hydroxymethyl-3-{1-methyl-5-[5-(morpholine-4-carbonyl)-pyridin-2-ylamino]-6-oxo-1,6-dihydro-pyridin-3-yl}-phenyl)-6-(1-methyl-cyclopropyl)-2H-isoquinolin-1-one], the midpoint of inhibition, the IC50, lay at 16 nM. As for `Cn1cc(-c2cccc(-n3ccc4cc(C5(C)CC5)cc(F)c4c3=O)c2CO)cc(Nc2ccc(S(C)(=O)=O)cn2)c1=O` [Example I-61, 8-Fluoro-2-{2-hydroxymethyl-3-[5-(5-methanesulfonyl-pyridin-2-ylamino)-1-methyl-6-oxo-1,6-dihydro-pyridin-3-yl]-phenyl}-6-(1-methyl-cyclopropyl)-2H-isoquinolin-1-one], the IC50 came out at 51 nM. `Cn1cc(-c2cccc(-n3ccc4cc(C5CC5)cc(F)c4c3=O)c2CO)cc(Nc2ccc(S(C)(=O)=O)cn2)c1=O` [Example I-62, 6-Cyclopropyl-8-fluoro-2-{2-hydroxymethyl-3-[5-(5-methanesulfonyl-pyridin-2-ylamino)-1-methyl-6-oxo-1,6-dihydro-pyridin-3-yl]-phenyl}-2H-isoquinolin-1-one] returned an IC50 of 92 nM. The result for `Cn1cc(-c2cccc(-n3ccc4cc(C(C)(C)C)cc(F)c4c3=O)c2CO)cc(Nc2ccc(C(=O)N3CCOCC3)cn2)c1=O` [Example I-63, 6-tert-Butyl-8-fluoro-2-(2-hydroxymethyl-3-{1-methyl-5-[5-(morpholine-4-carbonyl)-pyridin-2-ylamino]-6-oxo-1,6-dihydro-pyridin-3-yl}-phenyl)-2H-isoquinolin-1-one] reads 16 nM; that for `CCC(O)(CC)c1cc(F)c2c(=O)n(-c3cccc(-c4cc(Nc5ccc(N6CCC(C)(O)CC6)cn5)c(=O)n(C)c4)c3CO)ccc2c1` [Example I-64, 6-(1-Ethyl-1-hydroxy-propyl)-8-fluoro-2-{2-hydroxymethyl-3-[5-(4-hydroxy-4-methyl-3,4,5,6-tetrahydro-2H-[1,3′]bipyridinyl-6′-ylamino)-1-methyl-6-oxo-1,6-dihydro-pyridin-3-yl]-phenyl}-2H-isoquinolin-1-one], 27 nM.

The compound `Cn1cc(-c2cccc(-n3ccc4cc(C(C)(C)C#N)cc(F)c4c3=O)c2CO)cc(Nc2ccc(OCCO)cn2)c1=O` [Example I-65, 2-[8-Fluoro-2-(3-{5-[5-(2-hydroxy-ethoxy)-pyridin-2-ylamino]-1-methyl-6-oxo-1,6-dihydro-pyridin-3-yl}-2-hydroxymethyl-phenyl)-1-oxo-1,2-dihydro-isoquinolin-6-yl]-2-methyl-propionitrile] yielded an IC50 of 19 nM.

`Cn1cc(-c2cccc(-n3ccc4cc(C5CC5)cc(F)c4c3=O)c2CO)cc(Nc2ccc(C(C)(C)C(=O)O)cn2)c1=O` [Example I-68, 2-(6-{5-[3-(6-Cyclopropyl-8-fluoro-1-oxo-1H-isoquinolin-2-yl)-2-hydroxymethyl-phenyl]-1-methyl-2-oxo-1,2-dihydro-pyridin-3-ylamino}-pyridin-3-yl)-2-methyl-propionic acid] gave an IC50 of 213 nM. Then `CNC(=O)C(C)(C)c1ccc(Nc2cc(-c3cccc(-n4ccc5cc(C6CC6)cc(F)c5c4=O)c3CO)cn(C)c2=O)nc1` [Example I-69, 2-(6-{5-[3-(6-Cyclopropyl-8-fluoro-1-oxo-1H-isoquinolin-2-yl)-2-hydroxymethyl-phenyl]-1-methyl-2-oxo-1,2-dihydro-pyridin-3-ylamino}-pyridin-3-yl)-N-methyl-isobutyramide], with 33 nM; and `CN(C)C(=O)C(C)(C)c1ccc(Nc2cc(-c3cccc(-n4ccc5cc(C6CC6)cc(F)c5c4=O)c3CO)cn(C)c2=O)nc1` [Example I-70, 2-(6-{5-[3-(6-Cyclopropyl-8-fluoro-1-oxo-1H-isoquinolin-2-yl)-2-hydroxymethyl-phenyl]-1-methyl-2-oxo-1,2-dihydro-pyridin-3-ylamino}-pyridin-3-yl)-N,N-dimethyl-isobutyramide], with 22 nM; and `CN1CC(Oc2ccc(Nc3cc(-c4cccc(-n5ccc6cc(C7CC7)cc(F)c6c5=O)c4CO)cn(C)c3=O)nc2)C1` [Example I-71, 6-Cyclopropyl-8-fluoro-2-(2-hydroxymethyl-3-{1-methyl-5-[5-(1-methyl-azetidin-3-yloxy)-pyridin-2-ylamino]-6-oxo-1,6-dihydro-pyridin-3-yl}-phenyl)-2H-isoquinolin-1-one], with 39 nM. In turn, `Cn1cc(-c2cccc(-n3ccc4cc(C5CC5)cc(F)c4c3=O)c2CO)cc(Nc2ccc(C(C)(C)O)cn2)c1=O` [Example I-72, 6-Cyclopropyl-8-fluoro-2-(2-hydroxymethyl-3-{5-[5-(1-hydroxy-1-methyl-ethyl)-pyridin-2-ylamino]-1-methyl-6-oxo-1,6-dihydro-pyridin-3-yl}-phenyl)-2H-isoquinolin-1-one] gave a half-inhibitory concentration (IC50) of 20 nM. This IC50 is about 1.9-fold lower than that of the compound before.

`CN1CCN(Cc2ccc(Nc3cc(-c4cccc(-n5ccc6cc(C7CC7)cc(F)c6c5=O)c4CO)cn(C)c3=O)nc2)CC1` [Example I-73, 6-Cyclopropyl-8-fluoro-2-(2-hydroxymethyl-3-{1-methyl-5-[5-(4-methyl-piperazin-1-ylmethyl)-pyridin-2-ylamino]-6-oxo-1,6-dihydro-pyridin-3-yl}-phenyl)-2H-isoquinolin-1-one] registered an IC50 of 24 nM. The IC50 values of the last two compounds are within 1.5-fold of each other.

For `CC(O)c1ccc(Nc2cc(-c3cccc(-n4ccc5cc(C6CC6)cc(F)c5c4=O)c3CO)cn(C)c2=O)nc1` (centres unmarked) [Example I-74, 6-Cyclopropyl-8-fluoro-2-(3-{5-[5-(1-hydroxy-ethyl)-pyridin-2-ylamino]-1-methyl-6-oxo-1,6-dihydro-pyridin-3-yl}-2-hydroxymethyl-phenyl)-2H-isoquinolin-1-one], the IC50 came out at 29 nM.

As for `COCCNCc1ccc(Nc2cc(-c3cccc(-n4ccc5cc(C6CC6)cc(F)c5c4=O)c3CO)cn(C)c2=O)nc1` [Example I-75, 6-Cyclopropyl-8-fluoro-2-[2-hydroxymethyl-3-(5-{5-[(2-methoxy-ethylamino)-methyl]-pyridin-2-ylamino}-1-methyl-6-oxo-1,6-dihydro-pyridin-3-yl)-phenyl]-2H-isoquinolin-1-one], the IC50 is 37 nM. Compound `Cn1cc(-c2cccc(-n3ccc4cc(C5CC5)cc(F)c4c3=O)c2CO)cc(Nc2ccc(C(C)(C)N)cn2)c1=O` [Example I-76, 2-(3-{5-[5-(1-Amino-1-methyl-ethyl)-pyridin-2-ylamino]-1-methyl-6-oxo-1,6-dihydro-pyridin-3-yl}-2-hydroxymethyl-phenyl)-6-cyclopropyl-8-fluoro-2H-isoquinolin-1-one] returned an IC50 of 40 nM. In turn, `CCNCc1ccc(Nc2cc(-c3cccc(-n4ccc5cc(C6CC6)cc(F)c5c4=O)c3CO)cn(C)c2=O)nc1` [Example I-77, 6-Cyclopropyl-2-{3-[5-(5-ethylaminomethyl-pyridin-2-ylamino)-1-methyl-6-oxo-1,6-dihydro-pyridin-3-yl]-2-hydroxymethyl-phenyl}-8-fluoro-2H-isoquinolin-1-one] registered an IC50 of 20 nM. For `CC(C)NCc1ccc(Nc2cc(-c3cccc(-n4ccc5cc(C6CC6)cc(F)c5c4=O)c3CO)cn(C)c2=O)nc1` [Example I-78, 6-Cyclopropyl-8-fluoro-2-(2-hydroxymethyl-3-{5-[5-(isopropylamino-methyl)-pyridin-2-ylamino]-1-methyl-6-oxo-1,6-dihydro-pyridin-3-yl}-phenyl)-2H-isoquinolin-1-one], the IC50 was determined as 20 nM.

Compound `Cn1cc(-c2cccc(-n3ccc4cc(C5CC5)cc(F)c4c3=O)c2CO)cc(Nc2ccc(OCCO)cn2)c1=O` [Example I-79, 6-Cyclopropyl-8-fluoro-2-(3-{5-[5-(2-hydroxy-ethoxy)-pyridin-2-ylamino]-1-methyl-6-oxo-1,6-dihydro-pyridin-3-yl}-2-hydroxymethyl-phenyl)-2H-isoquinolin-1-one] displayed an IC50 of 93 nM. This IC50 lies about 4.7-fold higher than the previous one. As for `Cn1cc(-c2cccc(-n3ccc4cc(C(C)(C)O)cc(F)c4c3=O)c2CO)nc(Nc2cnn(CC(F)F)c2)c1=O` [Example I-80, 2-(3-{6-[1-(2,2-Difluoro-ethyl)-1H-pyrazol-4-ylamino]-4-methyl-5-oxo-4,5-dihydro-pyrazin-2-yl}-2-hydroxymethyl-phenyl)-8-fluoro-6-(1-hydroxy-1-methyl-ethyl)-2H-isoquinolin-1-one], the concentration for half-maximal inhibition (IC50) came out at 31 nM. Take `CCn1cc(Nc2nc(-c3cccc(-n4ccc5cc(C(C)(C)O)cc(F)c5c4=O)c3CO)cn(C)c2=O)cn1` [Example I-81, 2-{3-[6-(1-Ethyl-1H-pyrazol-4-ylamino)-4-methyl-5-oxo-4,5-dihydro-pyrazin-2-yl]-2-hydroxymethyl-phenyl}-8-fluoro-6-(1-hydroxy-1-methyl-ethyl)-2H-isoquinolin-1-one]: half-maximal inhibition (IC50) required 13 nM. The result for `CC(O)Cn1cc(Nc2nc(-c3cccc(-n4ccc5cc(C6CC6)cc(F)c5c4=O)c3CO)cn(C)c2=O)cn1` (centres unmarked) [Example I-82, 6-Cyclopropyl-8-fluoro-2-(2-hydroxymethyl-3-{6-[1-(2-hydroxy-propyl)-1H-pyrazol-4-ylamino]-4-methyl-5-oxo-4,5-dihydro-pyrazin-2-yl}-phenyl)-2H-isoquinolin-1-one] reads 57 nM.

Take `CC(O)Cn1cc(Nc2nc(-c3cccc(-n4ncc5cc(C(C)(C)C)cc(F)c5c4=O)c3CO)cn(C)c2=O)cn1` (centres unmarked) [Example I-83, 6-tert-Butyl-8-fluoro-2-(2-hydroxymethyl-3-{6-[1-(2-hydroxy-propyl)-1H-pyrazol-4-ylamino]-4-methyl-5-oxo-4,5-dihydro-pyrazin-2-yl}-phenyl)-2H-phthalazin-1-one]: 10 nM corresponded to half-maximal inhibition (IC50).

`Cn1cc(-c2cccc(-n3ncc4cc(C(C)(C)C)cc(F)c4c3=O)c2CO)nc(Nc2cnn(CC(F)F)c2)c1=O` [Example I-84, 6-tert-Butyl-2-(3-{6-[1-(2,2-difluoro-ethyl)-1H-pyrazol-4-ylamino]-4-methyl-5-oxo-4,5-dihydro-pyrazin-2-yl}-2-hydroxymethyl-phenyl)-8-fluoro-2H-phthalazin-1-one]: the half-maximal inhibitory concentration (IC50) is 20 nM. This IC50 lies about 2-fold higher than the previous one.
